In patent US20160280641A1, “Method for refining 2-nito-4-methylsulfonyl benzoic acid and intermediate thereof” (priority 2013, published 2016):

Test: Ames test of mesotrione products
Assay type: cell-based
Details: mesotrione products made from the fine 2-nitro-4-methylsulfonyl benzoic acids obtained by different processes
Experimental: The fine 2-nitro-4-methylsulfonyl benzoic acids obtained by different processes are transformed into mesotrione products, and activities thereof are tested in Ames tests, wherein Ames responses are negative.

## CS(=O)(=O)c1ccc(C(=O)C2C(=O)CCCC2=O)c([N+](=O)[O-])c1 [mesotrione, 2-(4-methanesulfonyl-2-nitrobenzoyl)-1,3-cyclohexanedione]
  Ames responses: negative
